Test results published in ChEMBL document CHEMBL1138256 (Bioorg Med Chem Lett, 2007).
pIC50: −log10 of the molar value. Calls of active or inactive are those of the source. The rule behind the calls is not given here.

System: not listed separately
Assay: (§1) Inhibition of Clostridium botulinum A recombinant light chain protease LC/A by FRET assay
Compound O=C(/C=C/c1ccc(Cl)cc1[N+](=O)[O-])NO has a pIC50 of 5.70. O=C(/C=C/c1ccc(Cl)cc1F)NO showed a pIC50 of 5.36. CSc1cc(Cl)ccc1/C=C/C(=O)NO gave a pIC50 of 5.29. Compound CS(=O)(=O)c1cc(Cl)ccc1/C=C/C(=O)NO has a pIC50 of 4.77. With O=C(NO)c1ccc2cc(Cl)ccc2c1 the pIC50 was 4.68. With O=C(/C=C/c1ccc(Cl)cc1C(F)(F)F)NO the pIC50 was 6.22. Compound Cc1cc(Cl)ccc1/C=C/C(=O)NO has a pIC50 of 6.10. With Cn1c(C(=O)NO)cc2ccc(Cl)cc21 the pIC50 was 4.42. With O=C(NO)c1cc2ccc(Cl)cc2s1 the pIC50 was 4.35. Compound O=C(/C=C/c1ccc(Cl)cc1Cl)NO [CINNAMIC ACID HYDROXAMATE] has a pIC50 of 6.05. Work on N#Cc1cc(Cl)ccc1/C=C/C(=O)NO yielded a pIC50 of 4.92. Nc1cc(Cl)ccc1/C=C/C(=O)NO gave a pIC50 of 4.60. O=C(NO)c1ccc2cc(Br)ccc2c1 showed a pIC50 of 4.15. O=C(/C=C/c1ccc(Cl)cc1O)NO gave a pIC50 of 4.89. In the case of O=C(/C=C/c1ccc(Cl)cc1Br)NO, the pIC50 was 6.15. In the case of O=C(NO)C1=Cc2ccc(Cl)cc2C1, the pIC50 was 4.39. Work on COc1cc(Cl)ccc1/C=C/C(=O)NO yielded a pIC50 of 5.05.

System: Clostridium botulinum
Assay: as §1
For O=C(NO)c1cc2ccc(Cl)cc2[nH]1, the Activity was “inactive”.

System: Clostridium botulinum
Assay: Inhibition of Clostridium botulinum A recombinant light chain protease LC/A by at 100 uM by FRET assay
In the case of O=C(NO)c1cc2ccc(Cl)cc2[nH]1, the Activity was “inactive”.
